The values that follow come from patent publication US20010031865A1, “Substituted 3-phenyluracils” (priority 1991, published 2001).

The subject of data set [1] is young, 4-leaved cotton plants of the Stoneville 825 variety. As to the kind of experiment: Defoliation of young cotton plants (Use Example 1). To be noted: after 13 days. The data set is classed as in vivo. The protocol:
The comparative agent used was
A 6,7-dihydrodipyrido[1,2-alpha:2′, 1′-c]pyridilium as the dibromide monohydrate salt (common name: Diquat®).
The comparative agent was used in the form-of the preformulated commercial product.
The test plants used were young, 4-leaved cotton plants (without cotyledons) of the Stoneville 825 variety, which were grown under greenhouse conditions (relative humidity from 50 to 70%; day/night temperature 27/20° C.).
The amount of water applied was equivalent to […]. After 13 days, the number of dropped leaves and the degree of defoliation in % were determined.

The subject of data set [2] is undesirable broad-leaved plants and grasses. In words: Greenhouse herbicidal test, postemergence treatment. The data set is classed as in vivo. To be noted: for control of undesirable broad-leaved plants and grasses: postemergence use of 0.5 kg/ha, greenhouse. The protocol: The seeds of the test plants were sown separately according to species. For the purpose of the postemergence treatment, the test plants were grown in the test vessels themselves or were planted in the test vessels a few days beforehand. The active ingredients suspended or emulsified in water were not applied until a height of growth of from 3 to 15 cm, depending on the form of growth. The plants were kept at 10-25° C. or 20-35° C., according to species. The test periods extended over from 2 to 4 weeks. During this time, the plants were tended and their reaction to the individual treatments was evaluated. Rating was based on a scale from 0 to 100. 100 means no emergence of the plants or complete destruction of at least the above-ground parts and 0 means no damage on normal growth. The plants used in the greenhouse experiments consisted of the following species: [table]

Setting [3] is: converted application rate 0.10 kg/ha.

`c1cc[n+]2c(c1)-c1cccc[n+]1CC2` [A, 6,7-dihydrodipyrido[1,2-alpha:2′, 1′-c]pyridilium, reference compound] showed a Defoliation in data set [1] (setting [3]) of 0%.
Turning to `Cn1c(C(F)(F)F)cc(=O)n(-c2ccc(Cl)c(C=O)c2)c1=O` [compound 1.1, 3-(4-Chloro-3-formylphenyl)-2,4-dioxo-1-methyl-6-trifluoromethyl-1,2,3,4-tetrahydropyrimidine], the “control of undesirable broad-leaved plants and grasses” value in data set [2] is “very readily controlled”.
The compound `CCO/N=C/c1cc(-n2c(=O)cc(C(F)(F)F)[nH]c2=O)ccc1Cl` [compound 1.4, 3-[4-Chloro-3-(ethoximinomethyl)-phenyl]-2,4-dioxo-6-trifluoromethyl-1,2,3,4-tetrahydropyrimidine] registered a melting point of 221 to 223 °C.
As to `CCO/N=C/c1cc(-n2c(=O)cc(C(F)(F)F)n(C)c2=O)ccc1Cl` [compound 1.5, 3-[4-Chloro-3-(ethoximinomethyl)-phenyl]-2,4-dioxo-1-methyl-6-trifluoromethyl-1,2,3,4-tetrahydropyrimidine], the melting point was 132 to 134 °C. Further, the “control of undesirable broad-leaved plants and grasses” value in data set [2] is on record as “very readily controlled”.
For the compound `CCCCOC(=O)/C(Cl)=C/c1cc(-n2c(=O)cc(C(F)(F)F)n(C)c2=O)ccc1Cl` [compound 1.15, 3-[4-Chloro-3-(2-chloro-2-butoxycarbonylethen-1-yl)-phenyl]-2,4-dioxo-1-methyl-6-trifluoromethyl-1,2,3,4-tetrahydropyrimidine], the “control of undesirable broad-leaved plants and grasses” value in data set [2] was “very readily controlled”.
In the case of `COC(=O)/C(C#N)=C/c1cc(-n2c(=O)cc(C(F)(F)F)n(C)c2=O)ccc1Cl` [compound 1.22, 3-[4-Chloro-3-(2-cyano-2-methoxycarbonylethenyl)-phenyl]-2,4-dioxo-1-methyl-6-trifluoromethyl-1,2,3,4-tetrahydropyrimidine], the “control of undesirable broad-leaved plants and grasses” value in data set [2] is “very readily controlled”.
Consider `CCOC(=O)N/N=C/c1cc(-n2c(=O)cc(C(F)(F)F)n(C)c2=O)ccc1Cl` [compound 1.91, 3-(4-Chloro-3-ethoxycarbonylhydrazonomethylphenyl)-2,4-dioxo-1-methyl-6-trifluoromethyl-1,2,3,4-tetrahydropyrimidine], for which the melting point lay within 219 to 221 °C.
In the case of `Cn1c(C(F)(F)F)cc(=O)n(-c2ccc(Cl)c(C3OCCCO3)c2)c1=O` [compound 2.1, 3-[4-Chloro-3-(1,3-dioxan-2-yl)-phenyl]-2,4-dioxo-1-methyl-6-trifluoromethyl-1,2,3,4-tetrahydropyrimidine], in data set [2], the “control of undesirable broad-leaved plants and grasses” value is recorded as “very readily controlled”.
As to `COC(=O)/C(Cl)=C/c1cc(-n2c(OC)nc(C(F)(F)F)cc2=O)ccc1Cl` [compound 3.1, 3-[4-Chloro-3-(2-chloro-2-methoxycarbonylethenyl)-phenyl]-2-methoxy-4-oxo-6-trifluoromethyl-3,4-dihydro-pyrimidine], in data set [2] (postemergence method, application rates of 0.06 and 0.03 kg/ha), the “control of undesirable broad-leaved plants” value was “very readily controlled”. Besides, the Defoliation in data set [1] (converted application rate 0.05 kg/ha) turned out to be 53%; in data set [1] (setting [3]), 73%.

As a reminder, the melting point is the temperature of the solid-liquid transition.
